Like-named read-outs stand apart in the source and are kept apart here.
Columns and labels:
[1] = cited from earlier work
DA₂ receptor = assay: Goldberg femoral in vivo dog model (DA2 activity, intra-arterial)
Description: The compounds were subsequently tested following intra-arterial administration in an in situ renal and femoral arterial preparation in the dog, as developed by L.I. Goldberg, to test for DA1 and DA2 dopamine activity, respectively. Details of the methodology are provided in the European J. Pharmacol., 89:137, 1983, as well as in Hypertension, 6:1-25, 1984.
The compound was injected directly into the renal or femoral artery for analysis of DA₁ or DA₂ activity, respectively. […] The compound was tested for relative activity in comparison to the standard DA₁ agonist, dopamine or the standard DA₂ agonist, DPDA. Specific DA₁ or DA₂ activity of the tested compound was verified by Sch 23390 or domperidone blockade.
Adult mongrel dogs of either sex (11-20 kg) were anesthetized with pentobarbital sodium (33 mg/kg, i.v.). the animals were intubated and ventilated with room air using a Harvard respirator. […]
The optimal dose of compound was defined as that which produced a maximum increase in blood flow before causing a change in systemic blood pressure. Efficacy ratios were determined by division of the optimal response of the test compound by the optimal response of the standard agent. […] Potency ratios were the quotients calculated from the division of the standard agent ED₅₀ by the ED₅₀ of the test compound. […]

DA₁ receptor = assay: Goldberg renal in vivo dog model (DA1 activity, intra-arterial); conditions: for Relative Efficacy to DA₁ Standard: optimal response divided by optimal response of dopamine
Description: The compounds were subsequently tested following intra-arterial administration in an in situ renal and femoral arterial preparation in the dog, as developed by L.I. […] Details of the methodology are provided in the European J. […] The compound was injected directly into the renal or femoral artery for analysis of DA₁ or DA₂ activity, respectively. […] Specific DA₁ or DA₂ activity of the tested compound was verified by Sch 23390 or domperidone blockade. Adult mongrel dogs of either sex (11-20 kg) were anesthetized with pentobarbital sodium (33 mg/kg, i.v.). the animals were intubated and ventilated with room air using a Harvard respirator. The abdominal aorta was catheterized with a Millar micro-tip (size: 5F) transducer via the right femoral artery for pressure monitoring. The right femoral vein was cannulated with PE-160 tubing for iv saline infusion, as well as, supplemental pentobarbital administration. The left renal artery was isolated through a lateral abdominal incision. An electromagnetic flowprobe of the appropriate size (9-12 mm circ) was placed around the artery and connected to a Carolina Medical electromagnetic flowmeter. Surface ECG leads were placed subcutaneously on the chest and limbs to monitor heart rate. A 25 gauge 3/4" needle bent 90°, 4 mm from the tip, was placed in the renal artery proximal to the probe and connected to an infusion pump delivering saline at a constant rate of 1 ml/min. […] Blood pressure was maintained by supplemental saline (10-20 ml/kg, iv). Bradykinin, a standard for nonspecific vasodilation, was given at 0.62 nmole doses, in 0.2 ml saline, i.a., prior to generating a dose response curve for dopamine in which 4-fold increase doses, ranging from 3 to 48 nmoles, were injected i.a. in 0.2 ml of saline. Test compound was injected similarly in 4-fold increasing doses up to a maximum of 3000 nmoles. […] The optimal dose of compound was defined as that which produced a maximum increase in blood flow before causing a change in systemic blood pressure. Efficacy ratios were determined by division of the optimal response of the test compound by the optimal response of the standard agent. ED₅₀ values were derived by regression analysis from individually generated dose response curves. Potency ratios were the quotients calculated from the division of the standard agent ED₅₀ by the ED₅₀ of the test compound.

[2] = system: spontaneously hypertensive rat (SHR); assay: Diuretic activity in saline-loaded spontaneously hypertensive rat; assay type: in vivo
Description: Additionally, these compounds were examined for diuretic activity for 6 hours following oral compound administration in the saline-loaded spontaneously hypertensive rat (SHR). Methods for this assay have been previously described (Rosenkranz, et al, Proc. West. Pharmacol. Soc. 28:87, 1985). The diuretic and natriuretic effects elicited by these compounds were characterized by an immediate onset of action.
Male spontaneously hypertensive SHR/NCr1BR rats weighing 320-430 gms were divided into four groups of seven animals. All animals were food- and water-deprived overnight. The following morning, each group of rats was hydrated with deionized water (20 ml/kg, po) forty-five minutes prior to the administration of vehicle or the test compound (R₁ and R₂ = H; X = (CH₂)n, m = 6).
Following vehicle or drug, the rats were placed in individual metabolic units. Fifteen minutes post-dose the animals were saline-loaded (30 ml/kg, po). Urine was collected at 1, 3 and 6 hour intervals post-saline-load. Urine volumes were measured and sodium and potassium levels were determined by flame photometry.
A two-way analysis of variance with time, treatment and their interaction was run as a repeated measures analysis. A secondary model of one-way analysis of variance (by time) was run using specified contrasts. The p-values for the contrasts were adjusted using Fisher's LSD strategy at each time point.

[3] = system: spontaneously hypertensive rats; assay: Oral antihypertensive activity in conscious restrained spontaneously hypertensive rat; assay type: in vivo
Description: The compounds of this invention were screened for oral antihypertensive activity in the conscious restrained rat. Adult male SHR were instrumented for blood pressure and heart rate measurements under light ether anesthesia. The animals were maintained on a plexiglass restraining board following surgery, and were allowed a 1 hour recovery period prior to the oral administration of the test compounds.
Male spontaneously hypertensive rats, SHR/NVr1Br (320-410 g) were fasted overnight. The following morning the left femoral artery and vein of each rat was cannulated under light ether anesthesia. following surgery, the rats were placed on a rat restraining board and allowed to recover from the effects of the ether for 1 hour. ECG leads were placed on the animal's chest to monitor heart reate. Animals were divided into groups of 4 and dosed with the test compound (R₁ and R₂ = H; X = (CH₂)m; m = 6).
Blood pressure and heart rate readings were taken at 5 minute intervals for the first 15 minutes and every 15 minutes thereafter for a duration of 4 hour post-compound administration. Data was evaluated by two-tailed paired t-tests.

Rats = assay: 7-day toxicity in rats; assay type: in vivo; conditions: 30 and 100 mg/kg once a day for 7 days
Description: Rats were administered compound I (R₁ and R₂ = H; X = (CH₂)m; m = 6; R,R isomer) in doses of 30 and 100 mg/kg once a day for 7 days.

SMILES: Cl.NCCc1ccc(O)c(O)c1 [DOPAMINE HYDROCHLORIDE, 3,4-Dihydroxyphenethylamine Hydrochlorid]
- Solubility ([1]; in alcohol): soluble
- Solubility ([1]; in chloroform and ether): practically insoluble
- Solubility ([1]; in water): Freely soluble

SMILES: CCCN(CCC)CCc1ccc(O)c(O)c1 [DPDA, di-propyl dopamine]
- ED₅₀ (DA₂ receptor; femoral blood flow increase, injection into femoral artery, anesthetized dog): 1.00 nmol
- Relative Efficacy to DA₂ Standard (DA₂ receptor; optimal response divided by optimal response of DPDA): 1.00

SMILES: NCCc1ccc(O)c(O)c1 [Dopamine, 3-hydroxytyramine]
- Relative Efficacy to DA₁ Standard (DA₁ receptor): 1.00

SMILES: Oc1ccc(C[C@H]2CCCN2CCCCCCN2CCC[C@@H]2Cc2ccc(O)c(O)c2)cc1O [Test Compound, R,R-1,6-bis[2-(3,4-dihydroxybenzyl)pyrrolidin-1-yl]hexane]
- Relative Potency to DA₁ Standard (DA₁ receptor; ED50 of dopamine divided by ED50 of test compound): 11.71
- Relative Efficacy to DA₁ Standard (DA₁ receptor): 1.05
- ED₅₀ (DA₁ receptor; renal blood flow increase, injection into renal artery, anesthetized dog, phenoxybenzamine pretreated): 0.63 nmol
- urine and sodium retention ([2]; 3 mg/kg, po, urine at 1 hour, sodium at 1 and 3 hours): significant urine and sodium retention
- diuresis and natriuresis ([2]; 10 mg/kg oral, one hour post administration): significant diuresis and natriuresis
- diuresis and natriuresis ([2]; 30 mg/kg, 1, 3 and 6 hours post-dose): diuresis and natriuresis (p<0.05) were observed
- kaliuresis ([2]; 30 mg/kg, po, 1 and 3 hour post-dose): significant kaliuresis
- HR increase ([3]; 3 mg/kg): 6%
- duration of HR increase ([3]; 3 mg/kg): 90 min
- HR max. response ([3]; 10 mg/kg, decrease, p<0.05): -14%
- duration of HR decrease ([3]; 10 mg/kg, post-compound administration): 1 h
- HR change ([3]; 30 mg/kg): did not elicit any biologically significant changes in HR
- MBP change ([3]; 3, 10 and 30 mg/kg): significant decrease in MBP
- Peak decreases in MBP ([3]; across 3, 10 and 30 mg/kg): -17 to -22%
- duration of action (MBP decrease) ([3]; across 3, 10 and 30 mg/kg): 15 to 210 min
- treatment related changes in clinical condition, body weight, or food intake (Rats): No treatment related changes were noted

Reference: patent EP0404115A1, “Bis(benzylpyrrolidine)Derivatives as dopamine agonists” (SYNTEX (U.S.A.) INC., priority 1989, dated 1990)
